{"source": "paper PMC10011573", "about": "“Development of novel broad-spectrum antimicrobial lipopeptides derived from plantaricin NC8 β” (Scientific Reports, 2023)", "key": {"A. baumannii": {"tested_on": "A. baumannii", "conditions": "20 h"}, "E. cloacae": {"tested_on": "E. cloacae", "conditions": "20 h"}, "E. coli (K-12 MG1655) [1]": {"tested_on": "E. coli (K-12 MG1655)", "conditions": "Table 3; K-12 MG1655; broth microdilution, 50:50 PBS/LB-broth, 200 µL, 20 h, 37 °C"}, "E. faecium": {"tested_on": "E. faecium", "conditions": "20 h"}, "K. pneumoniae": {"tested_on": "K. pneumoniae", "conditions": "20 h"}, "P. aeruginosa": {"tested_on": "P. aeruginosa", "conditions": "20 h"}, "[2]": {"tested_on": "S. aureus (ATCC 29213, MSSA)", "conditions": "ATCC 29213, 20 h"}, "[3]": {"assay": "Carboxyfluorescein release assay, bacterial liposome model", "format": "biochemical", "conditions": "75:25 POPC:POPG liposomes, 25 µM lipid, 10 mM PBS pH 7.4, 10^–5–10^2 µM peptide, 60 min, fluorescence, Hill fit, n = 3; read-out: EC50 Bacterial (concentration that triggers 50% CF release)", "in_short": "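CF-loaded extruded 0.1 µm unilamellar liposomes: bacterial POPC:POPG 75:25, mammalian POPC:POPS:Chol 65:5:30. Liposomes at 25 µM lipid in PBS pH 7.4 incubated with peptide (10^–5–10^2 µM; n = 3), fluorescence read every 2.5 min for 1 h. Release normalized to 1% Triton X-100; EC50 from Hill-1 fit.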"}, "S. aureus (ATCC 29213)": {"tested_on": "S. aureus (ATCC 29213)", "format": "cell-based", "conditions": "ATCC 29213, 20 h"}, "E. coli (K-12 MG1655) [4]": {"tested_on": "E. coli (K-12 MG1655)", "format": "cell-based", "conditions": "K-12, 20 h", "protocol": "The broth microdilution method was used to determine minimal inhibitory concentration (MIC) and minimal bactericidal concentration (MBC), in accordance with the EUCAST standards for the broth microdilution method. Two-fold serial dilutions of the lipopeptides were used, and the final concentrations ranged from 0.19 to 100 µM. In brief, two-fold serial dilutions of the lipopeptides were performed in a 96-well plate in PBS, with a final volume of 100 µl per well, after which 100 µl of LB-broth media containing approximately 5 × 10^5 CFU/ml of bacteria was added to each well. The plate was then incubated for 20 h in 37 °C on a shaker (400 rpm). The effect of lipopeptide-antibiotic combinations was investigated by performing checkerboard assays. The assays were performed in accordance with the MIC and MBC tests conducted above, but with horizontal and longitudinal two-fold serial dilutions of the tested compounds. […] The fractional inhibitory concentration (FIC) and fractional bactericidal concentration (FBC) were calculated by the equation (MIC or MBC of peptide in combination/MIC or MBC of peptide alone) + (MIC or MBC of antibiotic in combination/MIC or MBC of antibiotic alone). Synergy was defined as FIC/FBC ≤ 0.5, additive when 0.5 < FIC/FBC ≤ 1, indifferent when 1 < FIC/FBC < 2 and antagonistic when FIC/FBC ≥ 2. All experiments were repeated at least three times."}}, "note": "Residues, ends and D or L forms follow the SMILES beside them. *: point of attachment. Pentanoyl = CCCCC(=O)*"}
{"smiles": "CCCCC(=O)N[C@@H](CC(C)C)C(=O)NCC(=O)N[C@H](C(=O)N[C@@H](CCCCN)C(=O)N[C@H](C(=O)N[C@@H](CC(C)C)C(=O)N[C@@H](Cc1c[nH]c2ccccc12)C(=O)N[C@@H](CO)C(=O)N[C@@H](C)C(=O)N[C@@H](Cc1ccc(O)cc1)C(=O)N[C@@H](CCCCN)C(=O)N[C@@H](Cc1c[nH]cn1)C(=O)N[C@@H](CCCNC(=N)N)C(=O)N[C@@H](CCCCN)C(=O)N[C@H](C(=O)N[C@H](C(N)=O)[C@@H](C)CC)[C@@H](C)O)[C@@H](C)CC)[C@@H](C)CC", "note": "[L-6-C5] (Pentanoyl-LGIKILWSAYKHRKTI-NH2)", "values": [{"measurement": "MBC", "setting": "A. baumannii", "result": 6.3, "unit": "µM"}, {"measurement": "MIC", "setting": "A. baumannii", "result": 3.1, "unit": "µM"}, {"measurement": "MBC", "setting": "E. cloacae", "result": "> 100", "unit": "µM"}, {"measurement": "MIC", "setting": "E. cloacae", "result": "> 100", "unit": "µM"}, {"measurement": "E. coli MBC", "setting": "E. coli (K-12 MG1655) [1]", "result": 6.2, "unit": "µM"}, {"measurement": "E. coli MIC", "setting": "E. coli (K-12 MG1655) [1]", "result": 6.2, "unit": "µM"}, {"measurement": "MBC", "setting": "E. faecium", "result": 12.5, "unit": "µM"}, {"measurement": "MIC", "setting": "E. faecium", "result": 6.3, "unit": "µM"}, {"measurement": "MBC", "setting": "K. pneumoniae", "result": 100, "unit": "µM"}, {"measurement": "MIC", "setting": "K. pneumoniae", "result": 50, "unit": "µM"}, {"measurement": "MBC", "setting": "P. aeruginosa", "result": 100, "unit": "µM"}, {"measurement": "MIC", "setting": "P. aeruginosa", "result": 50, "unit": "µM"}, {"measurement": "S. aureus MBC", "setting": "[2]", "result": 6.2, "unit": "µM"}, {"measurement": "S. aureus MIC", "setting": "[2]", "result": 6.2, "unit": "µM"}, {"measurement": "EC50", "setting": "[3]", "result": 110, "unit": "nM"}, {"measurement": "S. aureus MBC, lipopeptide alone", "setting": "S. aureus (ATCC 29213)", "result": 6.25, "unit": "µM"}, {"measurement": "S. aureus MIC, lipopeptide alone", "setting": "S. aureus (ATCC 29213)", "result": 6.25, "unit": "µM"}, {"measurement": "E. coli MBC, lipopeptide alone", "setting": "E. coli (K-12 MG1655) [4]", "result": 6.25, "unit": "µM"}, {"measurement": "E. coli MIC, lipopeptide alone", "setting": "E. coli (K-12 MG1655) [4]", "result": 6.25, "unit": "µM"}]}
